Results as given in patent US20030045557A1, “Thiadiazoles and oxadiazoles and their use as phosphodiesterase-7 inhibitors” (priority 2000, published 2003).
Where a name gives a salt, the structure may show the parent alone.

Target: T1, PDE7A1 (Homo sapiens, UniProt Q13946)
T1 construct: made in house; host or cells: Sf21 insect cells (baculovirus expression system)
Assay: In vitro inhibition of phosphodiesterase 7 (enzymatic activity, cAMP substrate 50 nM)
Format: biochemical
Conditions: PDE7A1 expressed in Sf 21 insect cells; cAMP 50 nM; reaction 10 minutes; read-out: IC50 (PDE7)
Description: The capacity of the compounds of the invention to inhibit cyclic nucleotide phosphodiesterases was evaluated by measuring their IC50 (concentration necessary to inhibit the enzymatic activity by 50%).
PDE3A3, PDE4D3, and PDE7A1 were cloned and expressed in insect cells Sf 21 using the baculovirus expression system. The source of PDE103 and of PDE503 were human cell lines (respectively TPH1 human monocytes and MCF7 human breast adenocarcinoma). The various types of phosphodiesterases were obtained partially purified on an anion exchange column (Mono Q) according to a method adapted from Lavan B. E., Lakey T., Houslay M.D., Biochemical Pharmacology, 1989;38(22):4123-4136.
Measurement of the enzymatic activity for the various types of PDE was then made according to a method adapted from Thompson W. J. et al., Advances in Cyclic Nucleotide Research, ed. G. Brooker et al. New York: Raven Press, 1979;10:69-92.
The substrate used was cGMP for PDE1 and PDE5 and cAMP for PDE3, PDE4, and PDE7. The substrate concentration was 0.2 μM for PDE1, PDE3, and PDE5, 0.25 μM for PDE4, and 50 nM for PDE7.
The enzymatic reaction was stopped after 1 hour for PDE1, PDE3, and PDE5 and 10 minutes for PDE4 and PDE7.

T1 sequence (Q13946 whole entry, species assumed): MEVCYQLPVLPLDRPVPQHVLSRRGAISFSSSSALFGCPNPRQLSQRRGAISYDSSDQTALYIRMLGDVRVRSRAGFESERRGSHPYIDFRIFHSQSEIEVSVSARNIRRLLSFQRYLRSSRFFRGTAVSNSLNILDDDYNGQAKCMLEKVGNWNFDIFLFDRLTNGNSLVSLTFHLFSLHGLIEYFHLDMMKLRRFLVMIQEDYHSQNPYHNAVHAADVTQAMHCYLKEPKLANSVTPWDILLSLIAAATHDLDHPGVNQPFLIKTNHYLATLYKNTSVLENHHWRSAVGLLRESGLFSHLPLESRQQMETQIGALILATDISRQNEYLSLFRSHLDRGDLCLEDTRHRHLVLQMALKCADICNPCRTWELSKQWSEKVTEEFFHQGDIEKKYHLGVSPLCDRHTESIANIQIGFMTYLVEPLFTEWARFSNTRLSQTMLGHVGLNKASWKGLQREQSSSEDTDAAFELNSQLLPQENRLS

Row | Compound | IC50
1 | COc1cc(-c2nn(C)/c(=N/C3CCCCC3)s2)cc(OC)c1OC [Example I41, Cyclohexyl-[3-methyl-5-(3,4,5-trimethoxy-phenyl)-3H-[1,3,4]thiadiazol-2-ylidene]-amine] | 1300 nM
2 | COc1ccc(NC(=O)c2ccc(-c3nn(C)/c(=N/C4CCCCC4)s3)cc2)c(OC)n1 [I37,6, 4-(5-Cyclohexylimino-4-methyl-4,5-dihydro[1,3,4]thiadiazol-2-yl)-N-(2,6-dimethoxy-pyridin-3-yl)-benzamide] | 97 nM
3 | COc1cc(-c2nn(C)/c(=N/C3CCCCC3)s2)cc(OC)c1O [Example I23, 4-(5-Cyclohexylimino-4-methyl-4,5-dihydro-[1,3,4]thiadiazol-2-yl)-2,6-dimethoxy-phenol] | 850 nM
4 | COc1ccc(-c2nn(C)/c(=N/C3CCCCC3)s2)cc1OC [Example I34, Cyclohexyl-[5-(3,4-dimethoxy-phenyl)-3-methyl-3H-[1,3,4]thiadiazol-2-ylidene]-amine] | 630 nM
5 | Cn1nc(-c2cccc(C(=O)O)c2)s/c1=N\C1CCCCC1 [I21,1, 3-(5-Cyclohexylimino-4-methyl-4,5-dihydro-[1,3,4]thiadiazol-2-yl)-benzoic acid] | 870 nM
6 | Cn1nc(-c2ccc(Cl)c(S(N)(=O)=O)c2)s/c1=N\C1CCCCC1 [Example I19, 2-Chloro-5-(5-cyclohexylimino-4-methyl-4,5-dihydro-[1,3,4]thiadiazol-2-yl)-benzenesulfonamide] | 70 nM
7 | Cn1nc(-c2ccc(S(C)(=O)=O)cc2)s/c1=N\C1CCCCC1 [Example I15, Cyclohexyl-[5-(4-methanesulfonyl-phenyl)-3-methyl-3H-[1,3,4]thiadiazol-2-ylidene]-amine] | 140 nM
8 | CN(C)CCNC(=O)c1ccc(-c2nn(C)/c(=N/C3CCCCC3)s2)cc1 [I37,9, 4-(5-Cyclohexylimino-4-methyl-4,5-dihydro[1,3,4]thiadiazol-2-yl)-N-(2-dimethylamino-ethyl)-benzamide] | 75 nM
9 | Cn1nc(-c2cccc3cccnc23)s/c1=N\C1CCCCC1 [Example I28, Cyclohexyl-(3-methyl-5-quinolin-8-yl-3H-[1,3,4]thiadiazol-2-ylidene)-amine] | 230 nM
10 | Cn1nc(-c2cccc(Cl)c2)s/c1=N\C1CCCCC1 [Example I13, [5-(3-Chloro-phenyl)-3-methyl-3H-[1,3,4]thiadiazol-2-ylidene]-cyclohexyl-amine] | 700 nM
11 | Cn1nc(-c2ccc(Cl)cc2)s/c1=N\c1ccc(F)c(C(=O)O)c1 [I2,1, 5-[5-(4-Chloro-phenyl)-3-methyl-3H[1,3,4]thiadiazol-2-ylideneamino]-2-fluoro-benzoic acid] | 130 nM
12 | COC(=O)c1ccc(-c2nn(C)/c(=N/C3CCCCC3)s2)cc1 [Example I37, 4-(5-Cyclohexylimino-4-methyl-4,5-dihydro-[1,3,4]thiadiazol-2-yl)-benzoic acid methyl ester] | 230 nM
13 | Cn1nc(-c2cccc(O)c2)s/c1=N\C1CCCCC1 [Example I36, 3-(5-Cyclohexylimino-4-methyl-4,5-dihydro-[1,3,4]thiadiazol-2-yl)-phenol] | 290 nM
14 | Cn1nc(-c2ccc(C(=O)NCc3ccncc3)cc2)s/c1=N\C1CCCCC1 [I37,10, 4-(5-Cyclohexylimino-4-methyl-4,5-dihydro[1,3,4]thiadiazol-2-yl)-N-pyridin-4-ylmethyl-benzamide] | 44 nM
15 | Cn1nc(-c2cccc(S(N)(=O)=O)c2)s/c1=N\C1CCCCC1 [Example I39, 3-(5-Cyclohexylimino-4-methyl-4,5-dihydro-[1,3,4]thiadiazol-2-yl)-benzenesulfonamide] | 200 nM
16 | CN1CCC(N(C)C(=O)c2ccc(-c3nn(C)/c(=N/C4CCCCC4)s3)cc2)CC1 [I37,11, 4-(5-Cyclohexylimino-4-methyl-4,5-dihydro-[1,3,4]thiadiazol-2-yl)-N-methyl-N-(1-methyl-piperidin-4-yl)-benzamide] | 72 nM
17 | Cn1nc(-c2ccc(Cl)cc2)s/c1=N\c1cccc(C(=O)O)c1 [Example I1, 3-[5-(4-Chloro-phenyl)-3-methyl-3H-[1,3,4]thiadiazol-2-ylideneamino]-benzoic acid] | 150 nM
18 | Cn1nc(-c2ccc(C(=O)NO)cc2)s/c1=N\C1CCCCC1 [I37,2, 4-(5-Cyclohexylimino-4-methyl-4,5-dihydro-[1,3,4]thiadiazol-2-yl)-N-hydroxy-benzamide] | 1200 nM
19 | COc1c(O)cc(-c2nn(C)/c(=N/C3CCCCC3)s2)cc1O [I18,3, 5-(5-Cyclohexylimino-4-methyl-4,5-dihydro[1,3,4]thiadiazol-2yl)-2-methoxy-benzene-1,3-diol; compound with trifluoro-methanesulfonic acid] | 61 nM

Row | Compound | IC50
20 | Cn1nc(-c2ccc(S(N)(=O)=O)cc2)s/c1=N\C1CCCCC1 [Example I30, 4-(5-Cyclohexylimino-4-methyl-4,5-dihydro-[1,3,4]thiadiazol-2-yl)-benzenesulfonamide] | 140 nM
21 | COc1cc(-c2nn(C)/c(=N/C3CCCCC3)s2)ccc1O [Example I27, 4-(5-Cyclohexylimino-4-methyl-4,5-dihydro-[1,3,4]thiadiazol-2-yl)-2-methoxy-phenol] | 460 nM
22 | Cn1nc(-c2ccc(Cl)cc2)s/c1=N\C1CCCCC1 [I18,5, [5-(4-Chloro-phenyl)-3-methyl-3H-[1,3,4]thiadiazol-2-ylidene]-cyclohexyl-amine] | 1200 nM
23 | COc1ccc(-c2nn(C)/c(=N/C3CCCCC3)s2)cc1Br [Example I35, [5-(3-Bromo-4-methoxy-phenyl)-3-methyl-3H-[1,3,4]thiadiazol-2-ylidene]-cyclohexyl-amine] | 580 nM
24 | Cn1nc(-c2cc3cc(Cl)ccc3[nH]2)s/c1=N\C1CCCCC1 [Example I31, [5-(5-Chloro-1H-indol-2-yl)-3-methyl-3H-[1,3,4]thiadiazol-2-ylidene]-cyclohexyl-amine; compound with trifluoro-methanesulfonic acid] | 230 nM
25 | COc1cc(-c2nn(C)/c(=N/C3CCCCC3)s2)cc(O)c1OC [I18,4, 5-(5-Cyclohexylimino-4-methyl-4,5-dihydro[1,3,4]thiadiazol-2-yl)-2,3-dimethoxy-phenol;compound with trifluoro-methanesulfonic Acid] | 92 nM
26 | CN(C)c1ccc(-c2nn(C)/c(=N/C3CCCCC3)s2)cc1 [Example I29, [4-(5-Cyclohexylimino-4-methyl-4,5-dihydro-[1,3,4]thiadiazol-2-yl)-phenyl]-dimethyl-amine] | 300 nM
27 | Cn1nc(-c2ccc(Cl)cc2)s/c1=N\[C@@H]1CCCC[C@@H]1O (relative stereo) [I3,25, (1R*,2S*)-2-[5-(4-Chloro-phenyl)-3-methyl-3H-[1,3,4]thiadiazol-2-ylideneamino]-cyclohexanol] | 1200 nM
28 | Cn1nc(-c2ccccc2Cl)s/c1=N\C1CCCCC1 [I10,1, [5-(2-Chloro-phenyl)-3-methyl-3H-[1,3,4]thiadiazol-2-ylidene]-cyclohexyl-amine] | 1300 nM
29 | Cn1nc(-c2ccc(C(=O)Nc3nn[nH]n3)cc2)s/c1=N\C1CCCCC1 [I37,4, 4-(5-Cyclohexylimino-4-methyl-4,5-dihydro-[1,3,4]thiadiazol-2-yl)-N-(2H-tetrazol-5-yl)-benzamide hydrochloride salt] | 150 nM
30 | COc1ccc(/C=C/c2nn(C)/c(=N/C3CCCCC3)s2)cc1O [Example I26, 5-[(E)-2-(5-Cyclohexylimino-4-methyl-4,5-dihydro-[1,3,4]thiadiazol-2-yl)-vinyl]-2-methoxy-phenol] | 400 nM
31 | Cn1nc(-c2ccc(S(C)(=O)=O)cc2)s/c1=N\c1cccc(C(=O)O)c1 [Example I4] | 150 nM
32 | Cn1nc(-c2ccc(C(=O)Nc3cccc4cccnc34)cc2)s/c1=N\C1CCCCC1 [I37,5, 4-(5-Cyclohexylimino-4-methyl-4,5-dihydro[1,3,4]thiadiazol-2-yl)-N-quinolin-8-yl-benzamide] | 93 nM
33 | Cn1nc(-c2ccc3c(c2)OCO3)s/c1=N\C1CCCCC1 [Example I40, (5-Benzo[1,3]dioxol-5-yl-3-methyl-3H-[1,3,4]thiadiazol-2-ylidene)-cyclohexyl-amine] | 450 nM
34 | Cn1nc(-c2ccc(C(F)(F)F)cc2)s/c1=N\C1CCCCC1 [Example I11, Cyclohexyl-[3-methyl-5-(4-trifluoromethyl-phenyl)-3H-[1,3,4]thiadiazol-2-ylidene]-amine] | 980 nM
35 | Cn1nc(-c2ccc(O)cc2)s/c1=N\C1CCCCC1 [Example I33, 4-(5-Cyclohexylimino-4-methyl-4,5-dihydro-[1,3,4]thiadiazol-2-yl)-phenol; compound with 1,1,1-trifluoro-methanesulfonic acid] | 240 nM
36 | CC(C)NC(=O)c1ccc(-c2nn(C)/c(=N/C3CCCCC3)s2)cc1 [I37,7, 4-(5-Cyclohexylimino-4-methyl-4,5-dihydro[1,3,4]thiadiazol-2-yl)-N-isopropyl-benzamide] | 86 nM
37 | CCNC(=O)c1ccc(-c2nn(C)/c(=N/C3CCCCC3)s2)cc1 [I37,8, 4-(5-Cyclohexylimino-4-methyl-4,5-dihydro[1,3,4]thiadiazol-2-yl)-N-ethyl-benzamide] | 64 nM
38 | Cn1nc(-c2ccc(C(=O)O)cc2)s/c1=N\C1CCCCC1 [I37,1, 4-(5-Cyclohexylimino-4-methyl-4,5-dihydro-[1,3,4]thiadiazol-2-yl)-benzoic acid] | 550 nM
